Legend:
Type in all cases: cell-based
[1] = tested on: Chlamydia trachomatis (Ctr) strain L2/434/Bu; assay: Chlamydia trachomatis progeny infection of HeLa229 cells, cellular protection by compounds at 25 μM (GFP-signal, Image J quantification); conditions: HeLa229 cells pretreated 1 hour, Ctr MOI1, progeny infection fixed 48 hpi, versus solvent-treated cells
Procedure: HeLa229 (ATCC CCL-2.1). Cells were grown in RPMI1640 medium (Glutamax, 10% FBS, w/o HEPES) (Invitrogen).
Chlamydia trachomatis (Ctr). Laboratory-adapted strain L2/434/Bu (ATCC VR902B) was used in assays. Full biological and genetic information is available for this strain including complete genome sequence and defined proteome. This strain has a relatively low particle to infectivity ratio, perform efficient cell infection and has a higher viability than standard genital tract isolates with faster developmental cycle. Culture conditions have been described in (Wang Y., Kahane S., Cutcliffe L. T., Skilton R. J., Lambden P. R., Clarke I. N. Development of a transformation system for Chlamydia trachomatis: Restoration of glycogen biosynthesis by acquisition of a plasmid shuttle vector. PLoS Pathogen, 2011, 7(9):e1002258. doi: 10.1371/journal.ppat.1002258).
Compound application during Chlamydia trachomatis infection. HeLa229 cells were pretreated with Retro-2 and Retro-2 derivatives in concentrations of 25 μM for 1 hour until Chlamydia trachomatis (MOI1) were added to the cells. Compounds were present during infection. To obtain progeny infection, compound treated cells were lysed 24 h post infection (hpi) and lysate was used to infect fresh HeLa 229 cells. Infected cells of progeny infection were fixed with 4% Paraformaldehyde 48 hpi. Cells were stained for DAPI and Chlamydia trachomatis were detected by GFP-signal. Images are representative of n=2 independent experiments. Quantification of infected cells by Chlamydia trachomatis was realized from microscopy images with Image J software (FIG. 8) and cellular protection by compounds at 25 μM was then determined (Table 1) by comparison with solvent-treated cells (control) with the following equation: […]

[2] = tested on: Chlamydia trachomatis (Ctr) strain L2/434/Bu; assay: Chlamydia trachomatis (Ctr) infectivity assays in HeLa229 cells with Retro-2 at 25, 50 and 75 μM (HSP60 immunoblot, GFP-signal)
Procedure: (§1) HeLa229 (ATCC CCL-2.1) were grown in RPMI1640 medium (Glutamax, 10% FBS, w/o HEPES) (Invitrogen). Stable HeLa229 cell lines were established to constantly label the Golgi apparatus (B4GalT1 in a pCMV6-AC-mRFP cloning vector, OriGene) and the ER (KDEL in a pDsRed2-ER expression vector).
Chlamydia trachomatis (Ctr). Laboratory-adapted strain L2/434/Bu (ATCC VR902B) was used in assays. Full biological and genetic information is available for this strain including complete genome sequence and defined proteome. This strain has a relatively low particle to infectivity ratio, perform efficient cell infection and has a higher viability than standard genital tract isolates with faster developmental cycle. […]
(A) Cells with primary infection were lysed 24 h post infection (hpi). […] Progeny infection was lysed 24 hpi and analyzed together with primary infection samples by immunoblot. Chlamydial growth was detected with antibodies against chlamydial HSP60 protein and Actin was used as loading control (FIG. 6).
(B) Infected cells were fixed with 4% Paraformaldehyde 24 hpi. Cells were stained by Alexa-680 coupled Phalloidin and Ctr were detected by GFP-signal (FIG. 7).

[3] = tested on: Simkania negevensis (Sn) strain Z; assay: Simkania negevensis (Sn) infectivity assays in HeLa229 cells (primary and progeny infection; GroEL immunoblot, inclusion size/number, microscopy, TEM)
Procedure: as §1
Simkania negevensis (Sn) strain Z (ATCC VR-1471) was prepared as described previously (Mehlitz A, Karunakaran K, Herweg J A, Krohne G, van de Linde S, Rieck E, Sauer M, Rudel T. The chlamydial organism Sn forms ER vacuole contact sites and inhibits ER-stress. Cell Microbiol 2014; 16(8):1224-1243).
Briefly, HeLa229 cells were grown to 50-70% confluence, were inoculated with Sn in RPMI1640 with 5% FBS, for 6 h at 35° C. in a humidified incubator at 5% CO2. Medium was replaced by infection medium (RPMI1640, Glutamax, 5% FBS, w/o HEPES) and growth was allowed for 3 days. Cells were mechanically detached and bacteria were released using ˜2-5 mm glass beads (Carl Roth). Low speed supernatant (600×g, 4° C. and 5 min) was subjected to high-speed centrifugation (20,000×g, 4° C. and 30 min) to pellet bacteria. Bacteria were washed twice with 5 ml SPG (250 mM sucrose, 50 mM sodium phosphate, 5 mM glutamate, pH 7.4), aliquoted and stored at −80° C. in SPG.
40,000 HeLa cells were seeded in 12-well cluster plates, inhibitor-treated and infected as indicated in the respective experiments.
For infectivity assays cells were either fixed and stained at indicated time points (FIG. 2, 4; inclusion formation/primary infection) or bacteria were released via one freeze thaw cycle (−70° C./37° C.) followed by mechanical release through pipetting and transfer to fresh HeLa229 cells (1:25-1:50, progeny/infectivity). Cells were centrifuged for 1 h at 35° C. and medium exchanged to infection medium. […] Infectivity assays were imaged on an automated fluorescence microscope Leica DMIR (FIG. 4). Numbers and average sizes of the SCV as well as host cell numbers were determined via GroEL and DAPI staining and images were analysed and quantified using FIJI (ImageJ) and Excel (Microsoft). […]

Cc1nc(-c2ccc(C3N(C)c4ccccc4C(=O)N3c3ccccc3Cl)s2)cs1 (centres unmarked) [RN-3-072, 3-(2-chlorophenyl)-1-methyl-2-(5-(2-methylthiazol-4-yl)thiophen-2-yl)-2,3-dihydroquinazolin-4(1H)-one]
Cellular protection at 25 μM (%) [1]: 100%

Cc1nc(-c2ccc(C3Nc4ccccc4C(=O)N3c3ccccc3)s2)cs1 (centres unmarked) [Compound 25, 2-(5-(2-methylthiazol-4-yl)thiophen-2-yl)-3-phenyl-2,3-dihydroquinazolin-4(1H)-one]
Cellular protection at 25 μM (%) [1]: 100%

CN1c2ccccc2C(=O)N(c2ccccc2)C1c1ccc(-c2csc(-c3ccc(F)cc3)n2)s1 (centres unmarked) [VP-89, 2-(5-(2-(4-fluorophenyl)thiazol-4-yl)thiophen-2-yl)-1-methyl-3-phenyl-2,3-dihydroquinazolin-4(1H)-one]
Cellular protection at 25 μM (%) [1]: 88.5%

CN1c2ccccc2C(=O)N(c2ccccc2)C1c1ccc(Br)s1 (centres unmarked) [RN-2-016, 2-(5-bromothiophen-2-yl)-1-methyl-3-phenyl-2,3-dihydroquinazolin-4(1H)-one]
Cellular protection at 25 μM (%) [1]: 91.8%

Cc1nc(-c2ccc(C3N(C)c4ccc(F)cc4C(=O)N3c3ccccc3)s2)cs1 (centres unmarked) [Retro-2.1, 6-fluoro-1-methyl-2-(5-(2-methylthiazol-4-yl)thiophen-2-yl)-3-phenyl-2,3-dihydroquinazolin-4(1H)-one]
Cellular protection at 25 μM (%) [1]: 100%

Cc1ccc(C2Nc3ccccc3C(=O)N2c2ccccc2)s1 (centres unmarked) [Retro-2, 2-(5-methylthiophen-2-yl)-3-phenyl-2,3-dihydroquinazolin-4(1H)-one]
Ctr Hsp60 detection in the progeny infection ([2]; 75 μM of Retro-2, immunoblot, FIG. 6): almost no Ctr Hsp60 detection | Effect on Ctr development (Hsp60 western, GFP-expressing Ctr inclusions) ([2]; HeLa229 cells, Retro-2 25, 50 and 75 μM, primary infection 24 hpi): strong inhibitory effect | Concentration at which maximal inhibition of Sn replication was observed ([3]; HeLa cells, FIGS. 1-4): 75 µM | Effect on primary and progeny infection for Sn ([3]; HeLa cells, Retro-2 at 25 and 75 μM, GroEL western, inclusion size, inclusion number, microscopy): inhibitir effect on primary and progeny infection | Sn inclusions morphology (transmission electron microscopy) ([3]; infected HeLa cells, versus DMSO-treated control, FIG. 5): sub-vacuolar membranes were highly enlarged and contained excessive membrane material | Cellular protection at 25 μM (%) [1]: 18.1%
